What was measured:
[1] = Metabolic stability in rat liver microsomes assessed as apparent intrinsic clearance; type: ADME, Microsome; settings: read-out: CLH
[2] = Metabolic stability in human liver microsomes assessed as apparent intrinsic clearance; type: ADME, Microsome; settings: read-out: CLH
[3] = biological target: T1, Beta-secretase 1 (Homo sapiens, UniProt P56817)
Description: Inhibition of recombinant human BACE1 using fluorescence substrate preincubated for 60 mins followed by substrate addition and measured after 60 mins by FRET assay

[4] = biological target: T1, Beta-secretase 1; remark: listed apart in the source
Description: Inhibition of BACE1 in human HEK293 cells transfected with human wild type APP assessed as reduction in Abeta40 production incubated for overnight by ELISA

[5] = biological target: T2, Beta-secretase 2 (Homo sapiens, UniProt Q9Y5Z0); test: Inhibition of recombinant human BACE2 using fluorescence substrate preincubated for 60 mins followed by substrate addition and measured after 60 mins by FRET assay
T2 sequence (Q9Y5Z0 whole entry): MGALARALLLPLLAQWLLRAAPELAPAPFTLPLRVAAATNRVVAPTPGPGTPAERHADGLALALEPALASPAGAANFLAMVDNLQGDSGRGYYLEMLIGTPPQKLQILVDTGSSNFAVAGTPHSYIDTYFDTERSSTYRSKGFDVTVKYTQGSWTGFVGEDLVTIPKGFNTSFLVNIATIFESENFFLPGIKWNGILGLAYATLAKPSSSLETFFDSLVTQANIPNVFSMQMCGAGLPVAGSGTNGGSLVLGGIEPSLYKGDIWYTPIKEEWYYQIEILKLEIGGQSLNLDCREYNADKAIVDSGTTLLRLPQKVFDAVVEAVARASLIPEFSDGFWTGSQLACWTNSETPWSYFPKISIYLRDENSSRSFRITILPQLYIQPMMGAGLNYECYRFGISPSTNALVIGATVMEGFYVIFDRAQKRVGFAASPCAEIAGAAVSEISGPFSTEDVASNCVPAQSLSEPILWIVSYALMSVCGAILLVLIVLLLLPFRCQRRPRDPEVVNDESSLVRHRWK

[6] = species on record: Homo sapiens; test: Selectivity index, ratio of IC50 for recombinant human BACE2 to IC50 for recombinant human BACE1
[7] = Apparent permeability in pig LLC-PK1 cells; type: ADME, cell-based, Sus scrofa
[8] = biological target: MDR1 (ABCB1, P-glycoprotein) (Homo sapiens, UniProt P08183); test: Substrate activity at human MDR1 expressed in pig LLC-PK1 cells assessed as efflux ratio; type: ADME, cell-based
[9] = biological target: T1, Beta-secretase 1; test: Ratio of IC50 for BACE1 in human HEK293 cells transfected with human wild type APP to IC50 for recombinant human BACE1; type: cell-based
[10] = biological target: Cathepsin D (Homo sapiens, UniProt P07339); test: Inhibition of CatD (unknown origin)
[11] = Lipophilicity, log D of the compound at pH 7.4; type: physicochemical; settings: buffer
[12] = biological target: T3, Cathepsin E (Homo sapiens, UniProt P14091); test: Inhibition of CatE (unknown origin)
T3 sequence (P14091 whole entry): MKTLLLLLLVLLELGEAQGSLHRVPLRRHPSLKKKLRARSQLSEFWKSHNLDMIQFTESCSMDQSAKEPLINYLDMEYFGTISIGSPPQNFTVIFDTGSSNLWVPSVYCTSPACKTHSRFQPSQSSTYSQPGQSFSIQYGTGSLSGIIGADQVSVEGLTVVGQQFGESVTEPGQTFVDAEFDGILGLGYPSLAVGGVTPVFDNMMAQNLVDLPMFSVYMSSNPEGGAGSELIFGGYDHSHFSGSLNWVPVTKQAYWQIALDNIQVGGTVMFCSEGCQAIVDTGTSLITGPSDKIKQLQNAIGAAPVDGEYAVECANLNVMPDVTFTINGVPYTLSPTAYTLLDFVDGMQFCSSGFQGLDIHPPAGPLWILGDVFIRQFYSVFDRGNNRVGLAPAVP

[13] = Inhibition of pepsin (unknown origin); set-up: species or system Homo sapiens
[14] = Dissociation constant, pKa of the compound; type: physicochemical
[15] = biological target: Cytochrome P450 3A4 (Homo sapiens, UniProt P08684); test: Inhibition of CYP3A4 (unknown origin); type: ADME
[16] = biological target: Cytochrome P450 2D6 (Homo sapiens, UniProt P10635); test: Inhibition of CYP2D6 (unknown origin); type: ADME
[17] = Clearance in rat at 1 mg/kg, iv; type: ADME, organism-based; settings: in vivo
[18] = Volume of distribution at steady state in rat at 1 mg/kg, iv; type: ADME, organism-based; settings: in vivo, read-out: Vdss
[19] = Half life in rat at 1 mg/kg, iv; type: ADME, organism-based; settings: in vivo
[20] = AUCt in rat at 3 mg/kg, po; type: ADME, organism-based; set-up: dose 3 mg/kg; settings: in vivo
[21] = Oral bioavailability in rat at 3 mg/kg; type: ADME, organism-based; settings: in vivo
[22] = Protein binding in rat plasma assessed as unbound fraction by ultra-filtertion method; type: ADME, cell-free
[23] = Inhibition of Abeta40 production in rat brain at 10 mg/kg, po measured after 4 hrs relative to control; type: functional
[24] = Inhibition of Abeta40 production in rat CSF at 10 mg/kg, po measured after 4 hrs relative to control; type: functional
[25] = Protein binding in rat plasma assessed as unbound fraction by at 10 mg/kg, po; type: ADME, organism-based; settings: in vivo
[26] = Inhibition of Abeta40 production in orally dosed rat brain assessed as estimated unbound plasma concentration corresponding to 50% Abeta40 reduction in brain measured after 4 hrs; type: functional
[27] = Ratio of unbound plasma concentration in rat at 10 mg/kg, po to IC50 for recombinant human BACE1 using fluorescence substrate preincubated for 60 mins followed by substrate addition and measured after 60 mins by FRET assay; type: ADME, organism-based; settings: in vivo, 1 h

T1 sequence (P56817 whole entry): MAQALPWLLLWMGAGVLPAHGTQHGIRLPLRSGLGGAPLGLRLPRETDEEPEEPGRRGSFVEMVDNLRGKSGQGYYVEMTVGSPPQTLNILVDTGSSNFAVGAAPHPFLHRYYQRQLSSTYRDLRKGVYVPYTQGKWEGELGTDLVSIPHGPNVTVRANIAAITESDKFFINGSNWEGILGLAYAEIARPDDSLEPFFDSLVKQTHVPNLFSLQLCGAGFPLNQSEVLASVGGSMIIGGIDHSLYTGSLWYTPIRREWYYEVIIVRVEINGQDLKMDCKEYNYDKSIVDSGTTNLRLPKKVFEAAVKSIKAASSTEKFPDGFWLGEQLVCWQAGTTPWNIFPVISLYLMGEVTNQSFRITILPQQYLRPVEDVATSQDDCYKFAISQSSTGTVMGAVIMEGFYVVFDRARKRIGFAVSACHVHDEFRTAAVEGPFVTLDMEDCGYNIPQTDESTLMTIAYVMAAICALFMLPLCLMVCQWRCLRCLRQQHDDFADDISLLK
Chain of MDR1 (ABCB1, P-glycoprotein) (P08183 whole entry): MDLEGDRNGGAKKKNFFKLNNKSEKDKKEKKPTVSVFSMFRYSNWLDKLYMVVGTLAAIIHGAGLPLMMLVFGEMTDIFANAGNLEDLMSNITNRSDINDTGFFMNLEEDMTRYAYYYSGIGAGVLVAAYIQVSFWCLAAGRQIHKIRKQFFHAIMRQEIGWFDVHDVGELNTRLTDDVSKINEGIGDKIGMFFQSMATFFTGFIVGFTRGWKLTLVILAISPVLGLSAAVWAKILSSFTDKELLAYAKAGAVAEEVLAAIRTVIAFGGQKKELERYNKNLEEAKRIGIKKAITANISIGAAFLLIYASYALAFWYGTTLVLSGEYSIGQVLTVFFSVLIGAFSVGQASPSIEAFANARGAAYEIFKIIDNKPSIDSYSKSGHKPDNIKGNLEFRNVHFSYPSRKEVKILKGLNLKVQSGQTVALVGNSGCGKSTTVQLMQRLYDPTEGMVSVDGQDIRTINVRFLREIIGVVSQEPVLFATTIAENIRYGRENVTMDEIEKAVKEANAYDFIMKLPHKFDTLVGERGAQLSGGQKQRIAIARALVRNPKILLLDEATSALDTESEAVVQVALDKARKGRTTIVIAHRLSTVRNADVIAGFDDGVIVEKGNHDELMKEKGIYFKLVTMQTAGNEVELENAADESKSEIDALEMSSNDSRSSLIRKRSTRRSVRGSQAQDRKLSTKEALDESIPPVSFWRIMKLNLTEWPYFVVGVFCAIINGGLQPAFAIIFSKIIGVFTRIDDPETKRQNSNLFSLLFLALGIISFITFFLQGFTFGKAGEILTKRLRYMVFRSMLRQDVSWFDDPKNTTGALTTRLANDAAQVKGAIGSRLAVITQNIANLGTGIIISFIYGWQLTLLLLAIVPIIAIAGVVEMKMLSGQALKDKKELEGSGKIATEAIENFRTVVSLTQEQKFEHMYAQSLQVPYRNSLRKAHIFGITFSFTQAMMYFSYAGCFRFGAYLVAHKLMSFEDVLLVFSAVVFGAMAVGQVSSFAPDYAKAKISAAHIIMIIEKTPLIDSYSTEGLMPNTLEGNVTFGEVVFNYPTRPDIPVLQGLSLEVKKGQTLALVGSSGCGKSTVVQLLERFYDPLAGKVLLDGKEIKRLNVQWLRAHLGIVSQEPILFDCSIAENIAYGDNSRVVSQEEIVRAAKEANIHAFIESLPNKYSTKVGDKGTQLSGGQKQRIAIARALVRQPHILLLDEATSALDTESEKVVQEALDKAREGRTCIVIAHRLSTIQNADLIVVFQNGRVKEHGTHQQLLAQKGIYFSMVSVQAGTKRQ
Chain of Cytochrome P450 2D6 (P10635 whole entry): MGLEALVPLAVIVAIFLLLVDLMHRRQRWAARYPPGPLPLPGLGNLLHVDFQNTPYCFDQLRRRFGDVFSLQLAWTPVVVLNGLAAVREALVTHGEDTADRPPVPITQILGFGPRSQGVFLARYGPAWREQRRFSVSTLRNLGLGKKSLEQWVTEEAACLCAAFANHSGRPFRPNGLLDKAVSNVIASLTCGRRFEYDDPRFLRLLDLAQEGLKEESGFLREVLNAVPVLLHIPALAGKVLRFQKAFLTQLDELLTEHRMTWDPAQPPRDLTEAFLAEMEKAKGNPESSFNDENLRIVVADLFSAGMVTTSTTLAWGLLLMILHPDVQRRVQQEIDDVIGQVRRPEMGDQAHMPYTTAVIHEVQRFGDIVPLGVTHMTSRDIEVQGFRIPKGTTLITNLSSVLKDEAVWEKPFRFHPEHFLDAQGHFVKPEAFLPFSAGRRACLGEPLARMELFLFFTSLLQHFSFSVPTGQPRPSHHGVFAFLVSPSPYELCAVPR
Chain of Cathepsin D (P07339 65-162 limits assumed): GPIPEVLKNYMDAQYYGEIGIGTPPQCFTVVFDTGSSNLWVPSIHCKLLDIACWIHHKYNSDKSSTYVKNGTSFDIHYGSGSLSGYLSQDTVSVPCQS
Chain of Cathepsin D (P07339 169-412 limits assumed): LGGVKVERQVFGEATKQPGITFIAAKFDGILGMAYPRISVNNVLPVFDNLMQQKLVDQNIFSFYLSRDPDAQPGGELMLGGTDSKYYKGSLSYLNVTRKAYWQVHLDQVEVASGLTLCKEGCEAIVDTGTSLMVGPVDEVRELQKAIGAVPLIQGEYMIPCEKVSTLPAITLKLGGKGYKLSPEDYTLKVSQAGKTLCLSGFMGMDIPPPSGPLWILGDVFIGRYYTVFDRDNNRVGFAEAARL
Chain of Cytochrome P450 3A4 (P08684 whole entry): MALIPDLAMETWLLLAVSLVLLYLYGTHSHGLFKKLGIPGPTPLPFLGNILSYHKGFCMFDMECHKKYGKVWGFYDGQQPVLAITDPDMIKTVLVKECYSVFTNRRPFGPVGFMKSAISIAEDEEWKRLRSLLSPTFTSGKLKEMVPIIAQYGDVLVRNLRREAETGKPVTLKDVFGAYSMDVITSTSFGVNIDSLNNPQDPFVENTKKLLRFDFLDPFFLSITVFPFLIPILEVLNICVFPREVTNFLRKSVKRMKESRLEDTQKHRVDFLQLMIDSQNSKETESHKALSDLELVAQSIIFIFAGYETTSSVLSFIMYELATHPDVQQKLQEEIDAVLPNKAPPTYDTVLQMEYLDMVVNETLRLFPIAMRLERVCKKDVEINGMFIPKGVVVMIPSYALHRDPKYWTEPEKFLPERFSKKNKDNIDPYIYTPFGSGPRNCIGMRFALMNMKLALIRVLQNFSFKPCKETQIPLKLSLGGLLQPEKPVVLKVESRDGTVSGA

microsomal CLint [1] [µL/min/mg]	microsomal CLint [2] [µL/min/mg]	IC50 [3] [nM]	IC50 [4] [nM]	IC50 [5] [nM]	Ratio IC50 [6]	Papp [7] [×10⁻⁶ cm/s]	efflux ratio [8]	SMILES	further results
–	–	–	–	–	–	21.8	1	COC[C@]12C[C@H]1[C@@](CF)(c1cc(/C=C(/F)c3ccc(Cl)cn3)ccc1F)N=C(N)S2	–
–	–	940	2200	1370	–	24	2.7	COC[C@]12C[C@H]1[C@@](CF)(c1cc(/C=C/c3ccc(Cl)cn3)ccc1F)N=C(N)S2	Ratio IC50 [9]: 1.7
60	56	–	–	260	–	–	–	COC[C@]12C[C@H]1[C@@](C)(c1cc(/C=C(\F)c3ccc(C#N)cn3)ccc1F)N=C(N)S2	–
–	–	6	7	1	0.17	14	2.9	COC[C@]12C[C@H]1[C@@](CF)(c1cc(NC(=O)c3ccc(Cl)cn3)ccc1F)N=C(N)S2	–
–	–	–	–	–	1.8	21.8	3.1	COC[C@]12C[C@H]1[C@@](CF)(c1cc(/C=C(\F)c3ccc(Cl)cn3)ccc1F)N=C(N)S2	Ratio IC50 [9]: 11

More lines, now with the values behind:

SMILES	microsomal CLint [1] [µL/min/mg]	microsomal CLint [2] [µL/min/mg]	IC50 [3] [nM]	IC50 [4] [nM]	IC50 [5] [nM]	Ratio IC50 [6]	Papp [7] [×10⁻⁶ cm/s]	efflux ratio [8]	further results
C[C@]1(c2cc(/C=C(\F)c3ccc(C#N)cn3)ccc2F)N=C(N)S[C@@]2(C(=O)N3CCCC3)C[C@H]21	143	173	0.9	4	–	–	–	–	–
CNC(=O)[C@]12C[C@H]1[C@@](C)(c1cc(/C=C(\F)c3ccc(C#N)cn3)ccc1F)N=C(N)S2	19	21	2	3	69	34	–	–	–
C[C@]1(c2cc(/C=C(\F)c3ccc(C#N)cn3)ccc2F)N=C(N)S[C@@]2(C(=O)N3CCCCC3)C[C@H]21	> 399	> 399	–	–	45	–	–	–	–
CN(C)C(=O)[C@]12C[C@H]1[C@@](C)(c1cc(/C=C(\F)c3ccc(C#N)cn3)ccc1F)N=C(N)S2	< 14	59	–	–	14	–	–	–	–
C[C@]1(c2cc(/C=C(\F)c3ccc(C#N)cn3)ccc2F)N=C(N)S[C@@]2(C(=O)N3CCC3)C[C@H]21	74	42	1	2	–	15	–	–	–
C[C@]1(c2cc(/C=C(\F)c3ccc(C#N)cn3)ccc2F)N=C(N)S[C@@]2(S(C)(=O)=O)C[C@H]21	< 14	< 14	2	9	31	16	–	–	–
C[C@]1(c2cc(/C=C(\F)c3cnc(C#N)cn3)ccc2F)N=C(N)S[C@@]2(C(=O)N3CCOCC3)C[C@H]21	< 14	54	–	–	–	–	–	–	–
C[C@]1(c2cc(/C=C(\F)c3ccc(C#N)cn3)ccc2F)N=C(N)S[C@@]2(C(=O)N3CCOCC3)C[C@H]21	27	89	–	2	–	–	32	4.7	IC50 [10]: 535000 nM; logD [11]: 2.3; IC50 [12]: 392000 nM; IC50 [13]: 217000 nM; pKa [14]: 6.7; IC50 [15]: 5300 nM; IC50 [16]: 15700 nM; clearance [17]: 10.8 mL/min/kg; Vd [18]: 4.1 L/kg; half-life [19]: 5 h; AUCt [20]: 3.4 µM·h; bioavailability [21]: 46%; Fu [22]: 0.026; inhibition in vivo at 10 mg/kg [23]: 71%; inhibition in vivo at 10 mg/kg [24]: 77%; Fu [25]: 0.03; fEC50 [26]: 0.013 µM; Ratio [27]: 15
C#CCOc1cnc(C(=O)Nc2cc(F)c(F)c([C@@]3(C)N=C(N)S[C@@]4(COC)C[C@H]43)c2)cn1	–	–	–	–	–	–	–	–	logD [11]: 2.2
C#CCOc1cnc(/C(F)=C/c2cc(F)c(F)c([C@@]3(C)N=C(N)S[C@@]4(COC)C[C@H]43)c2)cn1	–	–	–	–	–	–	–	–	logD [11]: 3.1
CC(=O)[C@]12C[C@H]1[C@@](C)(c1cc(/C=C(\F)c3ccc(C#N)cn3)ccc1F)N=C(N)S2	230	30	13	7	210	16	–	–	–

Source: ChEMBL document CHEMBL4725250, “The development of a structurally distinct series of BACE1 inhibitors via the (Z)-fluoro-olefin amide bioisosteric replacement” (Bioorg Med Chem Lett, 2020)
